Measurements as given in ChEMBL document CHEMBL1121889, “Preparation and analgesic properties of amino acid derivatives of (-)-5,9 alpha-diethyl-2'-hydroxybenzomorphan” (J Med Chem, 1981).

Columns and labels:
Assay type in all cases: protein assay
Opioid receptor [1] = target: T1, Opioid receptor (Rattus norvegicus, UniProt P33533+P34975+P33535); assay: Compound was tested for its ability to displace [3H]naloxone from Opioid receptors in absence of NaCl
Opioid receptor [2] = target: T1, Opioid receptor; assay: Compound was tested for its ability to displace [3H]naloxone from Opioid receptors in presence of NaCl (100 mM)
Opioid receptor [3] = target: T1, Opioid receptor; assay: Compound was tested for its ability to displace [3H]- naloxone] from Opioid receptors in presence of NaCl (100 mM)
Opioid receptor [4] = target: T1, Opioid receptor; assay: Compound was tested for its ability to displace [3H]- naloxone] from Opioid receptors in absence of NaCl

Row | SMILES | IC50 (Opioid receptor [1]) [nM] | IC50 (Opioid receptor [2]) [nM] | IC50 (Opioid receptor [3]) [nM] | IC50 (Opioid receptor [4]) [nM]
1 | CCC1C2Cc3ccc(O)cc3C1(CC)CCN2C(=O)C(N)CC(C)C (centres undefined) | 1503 | 6384 | – | –
2 | CC[C@H]1[C@H]2Cc3ccc(O)cc3[C@]1(CC)CCN2 | – | – | 360 | 20
3 | CCC1C2Cc3ccc(O)cc3C1(CC)CCN2C(=O)C(N)CCCN=C(N)N.Cl (centres undefined) | 15.5 | 660 | – | –
4 | CCC1C2Cc3ccc(O)cc3C1(CC)CCN2C(=O)C(N)Cc1ccccc1.Cl (stereo in doubt; 2d) | 1540 | 3350 | – | –
5 | CCC1C2Cc3ccc(O)cc3C1(CC)CCN2C(=O)CN.Cl (centres undefined) | 287 | 8184 | – | –
6 | CCC1C2Cc3ccc(O)cc3C1(CC)CCN2C(=O)C(N)Cc1ccccc1.Cl (stereo in doubt; 2e) | > 10000 | > 10000 | – | –
7 | CCC1C2Cc3ccc(O)cc3C1(CC)CCN2C(=O)C(N)CCSC.Cl (centres undefined) | 301 | 5586 | – | –
